Like-named read-outs stand apart in the source and are kept apart here.
Legend:
Type in all cases: biochemical
JAK3 = biological target: T1, JAK3 (Homo sapiens, UniProt P52333); experiment: Inhibition of a panel of kinases, in vitro HotSpot kinase assay: JAK3; conditions: read-out: IC50 JAK3
T1 sequence (P52333 1-1124): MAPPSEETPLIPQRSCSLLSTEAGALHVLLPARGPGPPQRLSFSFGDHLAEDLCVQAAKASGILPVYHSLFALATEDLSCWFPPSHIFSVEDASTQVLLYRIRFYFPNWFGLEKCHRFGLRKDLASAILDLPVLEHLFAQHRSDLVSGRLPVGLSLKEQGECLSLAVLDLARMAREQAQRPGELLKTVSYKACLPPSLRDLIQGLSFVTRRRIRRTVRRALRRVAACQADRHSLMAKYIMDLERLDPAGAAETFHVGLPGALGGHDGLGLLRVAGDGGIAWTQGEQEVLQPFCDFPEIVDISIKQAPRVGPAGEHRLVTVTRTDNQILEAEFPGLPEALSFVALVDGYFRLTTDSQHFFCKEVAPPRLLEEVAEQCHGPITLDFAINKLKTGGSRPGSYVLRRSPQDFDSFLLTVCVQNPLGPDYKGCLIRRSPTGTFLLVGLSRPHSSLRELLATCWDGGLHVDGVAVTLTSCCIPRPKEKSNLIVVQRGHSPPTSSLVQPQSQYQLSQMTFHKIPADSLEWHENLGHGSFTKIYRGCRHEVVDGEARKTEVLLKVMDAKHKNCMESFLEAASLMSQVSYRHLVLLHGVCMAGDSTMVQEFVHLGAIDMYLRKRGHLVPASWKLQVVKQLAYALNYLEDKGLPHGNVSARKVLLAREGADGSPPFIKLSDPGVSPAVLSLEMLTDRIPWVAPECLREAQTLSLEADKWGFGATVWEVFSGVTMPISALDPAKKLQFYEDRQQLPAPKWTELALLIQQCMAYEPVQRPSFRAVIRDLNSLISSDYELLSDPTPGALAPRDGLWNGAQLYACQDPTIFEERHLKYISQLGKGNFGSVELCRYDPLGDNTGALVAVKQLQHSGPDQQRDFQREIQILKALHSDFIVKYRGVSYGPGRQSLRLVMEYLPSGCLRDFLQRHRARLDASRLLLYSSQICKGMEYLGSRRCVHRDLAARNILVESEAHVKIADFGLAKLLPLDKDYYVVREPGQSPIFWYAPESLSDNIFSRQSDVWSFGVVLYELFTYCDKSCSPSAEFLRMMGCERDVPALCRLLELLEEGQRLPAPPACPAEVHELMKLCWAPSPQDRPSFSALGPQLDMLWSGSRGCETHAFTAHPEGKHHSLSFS

LCK = LCK (Homo sapiens, UniProt P06239); experiment: Inhibition of a panel of kinases, in vitro HotSpot kinase assay: LCK; conditions: read-out: IC50 LCK
TEC = biological target: T2, TEC (Homo sapiens, UniProt P42680); experiment: Inhibition of a panel of kinases, in vitro HotSpot kinase assay: TEC
T2 sequence (P42680 1-631): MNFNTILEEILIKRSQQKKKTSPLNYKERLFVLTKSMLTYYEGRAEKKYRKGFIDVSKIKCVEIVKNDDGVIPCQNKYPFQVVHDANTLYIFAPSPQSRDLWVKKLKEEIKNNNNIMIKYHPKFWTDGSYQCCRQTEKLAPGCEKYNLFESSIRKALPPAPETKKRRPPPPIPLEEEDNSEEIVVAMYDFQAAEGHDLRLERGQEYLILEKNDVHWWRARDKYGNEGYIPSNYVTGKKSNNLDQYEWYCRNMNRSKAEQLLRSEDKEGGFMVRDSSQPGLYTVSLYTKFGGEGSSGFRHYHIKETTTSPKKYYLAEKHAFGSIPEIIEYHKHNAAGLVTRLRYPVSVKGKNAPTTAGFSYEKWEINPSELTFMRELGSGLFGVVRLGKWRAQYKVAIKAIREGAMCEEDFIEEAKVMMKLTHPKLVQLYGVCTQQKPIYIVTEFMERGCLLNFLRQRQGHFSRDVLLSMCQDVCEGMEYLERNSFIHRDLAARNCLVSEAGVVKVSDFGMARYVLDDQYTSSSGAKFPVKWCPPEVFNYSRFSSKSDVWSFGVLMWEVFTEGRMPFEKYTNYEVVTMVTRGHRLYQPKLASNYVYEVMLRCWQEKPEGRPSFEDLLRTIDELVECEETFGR
Procedure: (§1) The degree of inhibition of a panel of kinases is determined using the in vitro HotSpot kinase assay (purified enzymes, ^33P-ATP, an appropriate substrate and 1 μM ATP).

EGFR = EGFR (Homo sapiens, UniProt P00533); experiment: Inhibition of a panel of kinases, in vitro HotSpot kinase assay: EGFR
Procedure: as §1

SRC = SRC (Homo sapiens, UniProt P12931); experiment: Inhibition of a panel of kinases, in vitro HotSpot kinase assay: SRC
Procedure: as §1

ITK = biological target: T3, ITK (Homo sapiens, UniProt Q08881); experiment: Inhibition of a panel of kinases, in vitro HotSpot kinase assay: ITK
T3 sequence (Q08881 1-620): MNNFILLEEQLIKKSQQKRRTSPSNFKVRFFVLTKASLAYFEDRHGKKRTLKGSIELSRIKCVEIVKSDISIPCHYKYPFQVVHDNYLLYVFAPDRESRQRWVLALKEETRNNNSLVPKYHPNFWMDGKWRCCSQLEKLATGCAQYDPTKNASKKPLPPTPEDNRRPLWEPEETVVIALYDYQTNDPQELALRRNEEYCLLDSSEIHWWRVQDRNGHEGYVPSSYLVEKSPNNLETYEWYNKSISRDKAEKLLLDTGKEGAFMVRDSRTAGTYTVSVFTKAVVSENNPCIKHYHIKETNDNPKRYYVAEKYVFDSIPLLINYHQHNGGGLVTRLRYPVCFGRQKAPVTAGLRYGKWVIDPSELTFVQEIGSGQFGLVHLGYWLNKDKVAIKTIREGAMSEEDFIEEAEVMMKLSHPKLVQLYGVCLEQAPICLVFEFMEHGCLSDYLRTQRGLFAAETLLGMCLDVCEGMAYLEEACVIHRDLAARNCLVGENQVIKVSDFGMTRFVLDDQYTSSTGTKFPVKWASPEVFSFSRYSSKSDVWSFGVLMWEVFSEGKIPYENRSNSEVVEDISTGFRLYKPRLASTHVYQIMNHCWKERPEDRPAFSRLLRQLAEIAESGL
Procedure: as §1

[1] = Table 13, A compounds, 1 μM ATP

Sequence of LCK (P06239 whole entry): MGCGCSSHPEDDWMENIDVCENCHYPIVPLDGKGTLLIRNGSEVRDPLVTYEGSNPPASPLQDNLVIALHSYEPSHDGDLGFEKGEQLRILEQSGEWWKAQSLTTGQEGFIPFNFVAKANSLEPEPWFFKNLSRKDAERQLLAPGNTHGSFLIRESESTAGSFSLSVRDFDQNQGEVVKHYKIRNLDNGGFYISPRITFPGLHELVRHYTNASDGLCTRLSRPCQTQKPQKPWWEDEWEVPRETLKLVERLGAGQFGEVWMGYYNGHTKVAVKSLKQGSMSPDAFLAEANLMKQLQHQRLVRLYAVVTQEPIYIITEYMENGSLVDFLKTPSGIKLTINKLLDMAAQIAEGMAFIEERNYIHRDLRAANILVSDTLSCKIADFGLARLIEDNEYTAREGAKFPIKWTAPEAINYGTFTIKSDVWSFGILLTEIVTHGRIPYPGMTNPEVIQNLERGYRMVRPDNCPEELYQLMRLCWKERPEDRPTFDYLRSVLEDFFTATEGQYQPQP
Sequence of SRC (P12931 whole entry): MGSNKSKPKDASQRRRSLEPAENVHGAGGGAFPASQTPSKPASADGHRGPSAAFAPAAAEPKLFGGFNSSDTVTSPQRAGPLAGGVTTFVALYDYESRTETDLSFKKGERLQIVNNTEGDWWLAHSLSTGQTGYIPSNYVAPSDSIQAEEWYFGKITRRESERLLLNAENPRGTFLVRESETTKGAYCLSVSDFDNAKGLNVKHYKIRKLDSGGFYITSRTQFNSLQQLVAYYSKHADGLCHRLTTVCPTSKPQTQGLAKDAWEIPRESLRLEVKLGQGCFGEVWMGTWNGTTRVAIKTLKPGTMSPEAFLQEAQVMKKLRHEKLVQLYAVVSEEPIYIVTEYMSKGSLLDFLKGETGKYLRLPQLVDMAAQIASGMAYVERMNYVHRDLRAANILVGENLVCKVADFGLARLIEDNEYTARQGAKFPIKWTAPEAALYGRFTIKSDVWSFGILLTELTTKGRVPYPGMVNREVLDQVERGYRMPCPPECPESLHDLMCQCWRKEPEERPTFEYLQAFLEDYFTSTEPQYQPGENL
Sequence of EGFR (P00533 25-1210): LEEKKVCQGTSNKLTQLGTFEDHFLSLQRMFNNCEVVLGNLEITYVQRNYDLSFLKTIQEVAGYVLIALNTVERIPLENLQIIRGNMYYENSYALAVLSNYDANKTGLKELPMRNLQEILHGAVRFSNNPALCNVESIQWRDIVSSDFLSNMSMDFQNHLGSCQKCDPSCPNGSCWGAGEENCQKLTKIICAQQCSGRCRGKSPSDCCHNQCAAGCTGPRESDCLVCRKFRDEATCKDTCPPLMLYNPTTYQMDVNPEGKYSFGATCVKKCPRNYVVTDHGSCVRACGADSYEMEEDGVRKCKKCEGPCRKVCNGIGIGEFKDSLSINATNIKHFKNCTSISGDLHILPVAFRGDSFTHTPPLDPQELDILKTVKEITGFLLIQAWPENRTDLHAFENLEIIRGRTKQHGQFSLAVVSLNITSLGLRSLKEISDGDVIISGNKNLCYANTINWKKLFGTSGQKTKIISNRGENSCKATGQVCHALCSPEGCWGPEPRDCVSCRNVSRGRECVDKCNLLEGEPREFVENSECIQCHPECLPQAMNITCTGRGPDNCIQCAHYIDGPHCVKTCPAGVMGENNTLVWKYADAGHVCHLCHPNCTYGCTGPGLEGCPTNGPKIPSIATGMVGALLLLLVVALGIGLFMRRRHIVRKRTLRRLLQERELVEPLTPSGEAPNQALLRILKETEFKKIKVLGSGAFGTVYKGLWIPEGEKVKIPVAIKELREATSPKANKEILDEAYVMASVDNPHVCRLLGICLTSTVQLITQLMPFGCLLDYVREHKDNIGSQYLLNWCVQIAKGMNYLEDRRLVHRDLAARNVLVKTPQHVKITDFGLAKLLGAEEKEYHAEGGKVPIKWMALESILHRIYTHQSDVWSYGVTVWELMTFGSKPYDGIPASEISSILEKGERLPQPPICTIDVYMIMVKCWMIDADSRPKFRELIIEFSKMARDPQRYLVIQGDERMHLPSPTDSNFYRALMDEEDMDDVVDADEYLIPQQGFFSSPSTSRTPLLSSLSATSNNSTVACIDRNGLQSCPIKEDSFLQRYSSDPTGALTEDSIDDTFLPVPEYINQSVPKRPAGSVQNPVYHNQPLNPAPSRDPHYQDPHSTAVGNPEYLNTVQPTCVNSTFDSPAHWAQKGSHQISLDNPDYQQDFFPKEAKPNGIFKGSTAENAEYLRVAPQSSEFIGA

| IC50 (JAK3; E compounds, Table 17) [nM] | IC50 (LCK; E compounds, Table 17) [nM] | IC50 (TEC; E compounds, Table 17) [nM] | IC50 (EGFR; E compounds, Table 17) [nM] | IC50 (SRC; E compounds, Table 17) [nM] | IC50 (ITK; E compounds, Table 17) [nM] | IC50 (JAK3; [1]) [nM] | IC50 (LCK; [1]) [nM] | IC50 (TEC; [1]) [nM] | IC50 (EGFR; [1]) [nM] | IC50 (SRC; [1]) [nM] | IC50 (ITK; [1]) [nM] | SMILES |
| --- | --- | --- | --- | --- | --- | --- | --- | --- | --- | --- | --- | --- |
| < 10 | 10 to 100 | ≤ 10 | 10 to 100 | ≤ 10 | ≤ 10 |  |  |  |  |  |  | C=CC(=O)N1CCC[C@@H](N(C)c2cnc(C(N)=O)c(Nc3ccc(C4CCN(C5CCCC5)CC4)cc3)n2)C1 [Example E-125, (R)-5-((1-acryloylpiperidin-3-yl)(methyl)amino)-3-(4-(1-cyclopentylpiperidin-4-yl)phenylamino)pyrazine-2-carboxamide] |
|  |  |  |  |  |  | 1000 to 10000 | 10 to 100 | 10 to 100 | 100 to 1000 | 10 to 100 | 100 to 1000 | C[C@@H]1[C@H](NC(=O)c2ccc(C3CC3)cc2)CCCN1c1cnc(C(N)=O)c(Nc2ccc(N3CCN(C)CC3)cc2)n1 [Example A-170, 5-[(2R,3R)-3-(4-cyclopropylbenzamido)-2-methylpiperidin-1-yl]-3-{[4-(4-methylpiperazin-1-yl)phenyl]amino}pyrazine-2-carboxamide] |
|  |  |  |  |  |  | 100 to 1000 | 100 to 1000 | 10 to 100 | 100 to 1000 | 100 to 1000 | 100 to 1000 | CN1CCN(C(=O)c2ccc(Nc3nc(N4CCC[C@@H](n5ccc6cc(C7CC7)ccc6c5=O)C4)cnc3C(N)=O)cc2)CC1 [Example A-115, 5-[(3R)-3-(6-cyclo-propyl-1-oxo-1,2-dihydroisoquinolin-2-yl)piperidin-1-yl]-3-{[4-(4-methylpiperazine-1-carbonyl)phenyl]amino}pyr-azine-2-carboxamide] |
| < 10 | 100 to 1000 | ≤ 10 | 10 to 100 | 100 to 1000 | 10 to 100 |  |  |  |  |  |  | C=CC(=O)N1CCC[C@@H](Nc2nnc(C(N)=O)c(Nc3ccc(-c4ncccn4)cc3)n2)C1 [Example E-41, (R)-3-(1-acryloylpiperidin-3-ylamino)-5-(4-(pyrimidin-2-yl)phenylamino)-1,2,4-triazine-6-carboxamide] |
|  |  |  |  |  |  | 1000 to 10000 | 10 to 100 | 10 to 100 | 100 to 1000 | 10 to 100 | 100 to 1000 | C[C@@H]1[C@H](n2ccc3cc(C4CC4)ccc3c2=O)CCCN1c1cnc(C(N)=O)c(Nc2ccc(N3CCN(C)CC3)cc2)n1 [Example A-140, 5-[(2R,3R)-3-(6-cyclopropyl-1-oxo-1,2-dihydro-isoquinolin-2-yl)-2-methylpiperidin-1-yl]-3-{[4-(4-methylpiperazin-1-yl)phenyl]amino}pyrazine-2-carboxamide] |
| 1000 to 10000 | < 10 | 10 to 100 | 10 to 100 | ≤ 10 | ≤ 10 |  |  |  |  |  |  | Cc1cc(Nc2nc(N3CC[C@H](O)[C@@H](N4CCC[C@@H](Nc5cc(Cl)cc(C(F)(F)F)c5)C4=O)C3)nnc2C(N)=O)sn1 [Example E-10, 3-((3R,3'S,4'S)-3-(3-chloro-5-(trifluoromethyl)phenylamino)-4′-hydroxy-2-oxo-1,3′-bipiperidin-1-yl)-5-(3-methylisothiazol-5-ylamino)-1,2,4-triazine-6-carboxamide] |
|  |  |  |  |  |  | 1000 to 10000 | 100 to 1000 | 10 to 100 | 1000 to 10000 | 10 to 100 | 100 to 1000 | C[C@@H]1[C@H](NC(=O)c2ccc(C3CC3)nc2)CCCN1c1cnc(C(N)=O)c(Nc2cnn(C)c2)n1 [Example A-190, 5-((2R,3R)-3-(6-cyclopropylnicotinamido)-2-methylpiperidin-1-yl)-3-(1-methyl-1H-pyrazol-4-ylamino)pyr-azine-2-carboxamide] |
| 100 to 1000 | 10 to 100 | ≤ 10 | 1000 to 10000 | 10 to 100 | 100 to 1000 |  |  |  |  |  |  | C[C@@H]1[C@H](NC(=O)c2ccc(-c3ncco3)cc2)CCCN1c1cnc(C(N)=O)c(Nc2cnn(C)c2)n1 [Example E-154, 3-((1-methyl-1H-pyrazol-4-yl)amino)-5-((2R,3R)-2-methyl-3-(4-(oxazol-2-yl)benzamido)piperidin-1-yl)pyrazine-2-carboxamide] |

Source: patent publication US20210070748A1, “INHIBITORS OF BRUTONS TYROSINE KINASE” (Pharmacyclics LLC, priority 2015, published 2021)
